Reference: PubChem BioAssay (NCI)
Where “and” joins values, the source holds several entries; their conditions need not be identical. Identical values can stand only once.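 How tested: cells in 96-well plates exposed to compound for 48 hours at five concentrations. The concentration for 50% growth inhibition is given as GI50. At the TGI there is no net growth.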

Legend:
Test in all cases: DTP human tumour cell line panel, 48 h
COLO 205 colon = test system: COLO 205 colon
SK-MEL-5 melanoma = test system: SK-MEL-5 melanoma
A498 renal = test system: A498 renal
UACC-257 melanoma = test system: UACC-257 melanoma
NCI-H23 lung = test system: NCI-H23 lung
SK-MEL-28 melanoma = test system: SK-MEL-28 melanoma
OVCAR-5 ovarian = test system: OVCAR-5 ovarian
K-562 leukemia = test system: K-562 leukemia
786-0 renal = test system: 786-0 renal
HCT-116 colon = test system: HCT-116 colon

O=S(O)CCCCSSCC(O)C(O)CSSCCCCS(=O)O (centres undefined)
TGI (COLO 205 colon): 29 µM and 39.5 µM
GI50 (SK-MEL-5 melanoma): 4.97 µM and 11.2 µM
TGI (SK-MEL-5 melanoma): 18.1 µM and 26 µM
TGI (A498 renal): > 100 µM
TGI (UACC-257 melanoma): 21.6 µM and 26.7 µM
TGI (NCI-H23 lung): 42.3 µM and > 100 µM
TGI (SK-MEL-28 melanoma): 45.1 µM and > 100 µM
TGI (OVCAR-5 ovarian): > 100 µM
TGI (K-562 leukemia): 60.6 µM and > 100 µM
TGI (786-0 renal): > 100 µM

CC(C)=C[C@@H]1C[C@H](C)[C@H]2CC[C@H](C)C3=C2[C@](O)(OC3=O)[C@]1(C)O
GI50 (COLO 205 colon): > 100 µM
TGI (COLO 205 colon): > 100 µM
GI50 (SK-MEL-5 melanoma): > 100 µM
TGI (SK-MEL-5 melanoma): > 100 µM
GI50 (UACC-257 melanoma): > 100 µM
TGI (UACC-257 melanoma): > 100 µM
GI50 (SK-MEL-28 melanoma): > 100 µM
TGI (SK-MEL-28 melanoma): > 100 µM
GI50 (OVCAR-5 ovarian): > 100 µM
TGI (OVCAR-5 ovarian): > 100 µM
GI50 (K-562 leukemia): > 100 µM
TGI (K-562 leukemia): > 100 µM
GI50 (HCT-116 colon): > 100 µM
TGI (HCT-116 colon): > 100 µM
GI50 (786-0 renal): > 100 µM
TGI (786-0 renal): > 100 µM

C[C@H]1c2cccc(O)c2C(O)=C2C(=O)[C@]3(O)C(O)=C(C(N)=O)C(=O)[C@@H](N(C)C)[C@@H]3[C@@H](O)[C@@H]21
GI50 (COLO 205 colon): 1.88 µM
TGI (COLO 205 colon): 3.63 µM
GI50 (SK-MEL-5 melanoma): 1.9 µM
TGI (SK-MEL-5 melanoma): 4.12 µM
GI50 (A498 renal): 2.86 µM
TGI (A498 renal): 10.4 µM
GI50 (UACC-257 melanoma): 3.19 µM
TGI (UACC-257 melanoma): 13.9 µM
GI50 (NCI-H23 lung): 2.99 µM
TGI (NCI-H23 lung): 11.9 µM
GI50 (SK-MEL-28 melanoma): 4.14 µM
TGI (SK-MEL-28 melanoma): 16.4 µM
GI50 (OVCAR-5 ovarian): 5.22 µM
TGI (OVCAR-5 ovarian): 95.4 µM
GI50 (HCT-116 colon): 2.89 µM
TGI (HCT-116 colon): 10.5 µM
GI50 (786-0 renal): 3.26 µM
TGI (786-0 renal): 12.5 µM

CCOP(=O)(Cc1ccc(CP(=O)(OCC)OCC)n1C)OCC
TGI (COLO 205 colon): > 100 µM
TGI (SK-MEL-5 melanoma): > 100 µM
TGI (UACC-257 melanoma): > 100 µM
TGI (NCI-H23 lung): > 100 µM
TGI (SK-MEL-28 melanoma): > 100 µM
TGI (OVCAR-5 ovarian): > 100 µM
TGI (K-562 leukemia): > 100 µM
TGI (786-0 renal): > 100 µM

CC(O)C(N=Cc1ccccc1[O-])C(=O)[O-].CC(O)C(N=Cc1ccccc1[O-])C(=O)[O-].[Co+2] (centres undefined)
GI50 (COLO 205 colon): > 100 µM
TGI (COLO 205 colon): > 100 µM
GI50 (UACC-257 melanoma): > 100 µM
TGI (UACC-257 melanoma): > 100 µM
GI50 (NCI-H23 lung): > 100 µM
TGI (NCI-H23 lung): > 100 µM
GI50 (SK-MEL-28 melanoma): 31.9 µM
TGI (SK-MEL-28 melanoma): > 100 µM
GI50 (OVCAR-5 ovarian): > 100 µM
TGI (OVCAR-5 ovarian): > 100 µM
GI50 (K-562 leukemia): 98.4 µM
TGI (K-562 leukemia): > 100 µM
GI50 (786-0 renal): > 100 µM
TGI (786-0 renal): > 100 µM

CC(=O)O.CC(=O)O.CC(=O)O.CC(=O)O.CC(=O)O.CC(=O)O.O.[Ti].[Ti]
GI50 (COLO 205 colon): > 100 µM
TGI (COLO 205 colon): > 100 µM
GI50 (SK-MEL-5 melanoma): > 100 µM
TGI (SK-MEL-5 melanoma): > 100 µM
GI50 (A498 renal): > 100 µM
TGI (A498 renal): > 100 µM
GI50 (UACC-257 melanoma): > 100 µM
TGI (UACC-257 melanoma): > 100 µM
GI50 (SK-MEL-28 melanoma): > 100 µM
TGI (SK-MEL-28 melanoma): > 100 µM
GI50 (OVCAR-5 ovarian): > 100 µM
TGI (OVCAR-5 ovarian): > 100 µM
GI50 (K-562 leukemia): > 100 µM
TGI (K-562 leukemia): > 100 µM
GI50 (HCT-116 colon): > 100 µM
TGI (HCT-116 colon): > 100 µM
GI50 (786-0 renal): > 100 µM
TGI (786-0 renal): > 100 µM

COC(=O)C1=C(C)N(NC(=O)c2ccccc2)C(C)(O)C12CCOC2=O (centres undefined)
TGI (COLO 205 colon): > 100 µM
TGI (A498 renal): > 100 µM
TGI (UACC-257 melanoma): > 100 µM
TGI (NCI-H23 lung): > 100 µM
TGI (SK-MEL-28 melanoma): > 100 µM
TGI (OVCAR-5 ovarian): > 100 µM
TGI (K-562 leukemia): > 100 µM
TGI (HCT-116 colon): > 100 µM
TGI (786-0 renal): 2.68 µM

O=S(=O)(Nc1cc(F)cc(Cl)c1)c1ccc(-c2cnc(C3CC3)o2)cc1
GI50 (COLO 205 colon): 1.59 µM
TGI (COLO 205 colon): 11.8 µM
GI50 (SK-MEL-5 melanoma): 1.83 µM
TGI (SK-MEL-5 melanoma): 11.7 µM
GI50 (UACC-257 melanoma): 13.6 µM
TGI (UACC-257 melanoma): 34.9 µM
GI50 (NCI-H23 lung): 2.62 µM
TGI (NCI-H23 lung): 18.3 µM
GI50 (SK-MEL-28 melanoma): 10.3 µM
TGI (SK-MEL-28 melanoma): 23.7 µM
GI50 (OVCAR-5 ovarian): 4.43 µM
TGI (OVCAR-5 ovarian): 21.5 µM
GI50 (K-562 leukemia): 0.422 µM
TGI (K-562 leukemia): > 100 µM
GI50 (HCT-116 colon): 0.719 µM
TGI (HCT-116 colon): 16.4 µM
GI50 (786-0 renal): 4.88 µM
TGI (786-0 renal): 20.9 µM

O=[N+]([O-])c1nccn1CC(O)c1ccc(F)cc1 (centres undefined)
TGI (COLO 205 colon): > 100 µM
TGI (SK-MEL-5 melanoma): > 100 µM
TGI (A498 renal): > 100 µM
TGI (UACC-257 melanoma): > 100 µM
TGI (NCI-H23 lung): > 100 µM
TGI (SK-MEL-28 melanoma): > 100 µM
TGI (OVCAR-5 ovarian): > 100 µM
TGI (K-562 leukemia): > 100 µM
TGI (786-0 renal): > 100 µM

COc1ccc(NC(=O)CCc2cc(-c3ccc(O)c(OC)c3)nc(NC#N)n2)cc1
TGI (COLO 205 colon): > 100 µM
TGI (UACC-257 melanoma): > 100 µM
TGI (NCI-H23 lung): > 100 µM
TGI (SK-MEL-28 melanoma): > 100 µM
TGI (OVCAR-5 ovarian): > 100 µM
TGI (K-562 leukemia): > 100 µM
TGI (HCT-116 colon): > 100 µM
TGI (786-0 renal): > 100 µM

O=C(O)CNc1cc(-c2ccccc2)nc(NCC(=O)O)n1
TGI (COLO 205 colon): > 100 µM
TGI (SK-MEL-5 melanoma): > 100 µM
TGI (UACC-257 melanoma): > 100 µM
TGI (NCI-H23 lung): > 100 µM
TGI (SK-MEL-28 melanoma): > 100 µM
TGI (OVCAR-5 ovarian): > 100 µM
TGI (K-562 leukemia): > 100 µM
TGI (HCT-116 colon): > 100 µM
TGI (786-0 renal): > 100 µM

O=[n+]1c2c(n([O-])c3ccccc31)CCCCCCCCCC2
TGI (UACC-257 melanoma): > 100 µM
TGI (NCI-H23 lung): > 100 µM
TGI (SK-MEL-28 melanoma): > 100 µM
TGI (K-562 leukemia): > 100 µM
TGI (HCT-116 colon): > 100 µM
TGI (786-0 renal): > 100 µM

O=C1OC(c2ccccc2)=N/C1=C/C=C/c1ccco1
TGI (COLO 205 colon): > 100 µM
TGI (SK-MEL-5 melanoma): > 100 µM
TGI (NCI-H23 lung): > 100 µM
TGI (SK-MEL-28 melanoma): > 100 µM
TGI (OVCAR-5 ovarian): > 100 µM
TGI (K-562 leukemia): > 100 µM
TGI (786-0 renal): > 100 µM

Cc1ccccc1N1C(=O)/C(=C/c2ccc(N(CCC#N)CCC#N)cc2)N=C1c1cc([N+](=O)[O-])ccc1Cl
TGI (COLO 205 colon): 72 µM
TGI (SK-MEL-5 melanoma): > 100 µM
TGI (A498 renal): > 100 µM
TGI (UACC-257 melanoma): > 100 µM
TGI (NCI-H23 lung): > 100 µM
TGI (SK-MEL-28 melanoma): > 100 µM
TGI (OVCAR-5 ovarian): > 100 µM
TGI (K-562 leukemia): > 100 µM
TGI (786-0 renal): > 100 µM
